# Experimental data from US12275685B2, “Oligo-benzamide analogs and their use in cancer treatment” (Board of Regents, The University of Texas System, priority 2018, dated 2025).
# Entries after “also recorded” stand apart in the source; their conditions may differ. Read-outs that look alike come from different tables or passages of the source.
# Columns and labels:
# [1] = tested on: D538G MT-ERα; test: ERE reporter assay, ERX-315; format: cell-based; conditions: MCF-7 cells expressing D538G MT-ERα
# [2] = tested on: BC cells expressing MT-ERα; test: Uncompensated UPR / LC3B activation; format: cell-based
# Experimental: ERX-315 decreases expression of ERα MCF-7 cells with MT-ERα, both the Y537S and D538G mutants (FIG. 67C), around 12-16 h (FIG. 67D). […] In contrast, neither fulvestrant nor GDC-0810 consistently degrade MT-ERa nor induce LC3.
# [3] = tested on: MT-ERα; test: MT-ERα protein levels; format: cell-based; conditions: over 12-24 h
# [4] = tested on: HMEC cells; test: Protein synthesis by puromycin labeling, HMEC; format: cell-based, human
# [5] = tested on: MT-ERα (ZR-75 and MCF-7 cells with MT Y537S ERα) driven xenograft models; test: ERX-315 in MT-ERα BC xenograft models; format: in vivo; conditions: for growth of MT-ERα xenografts / mouse liver, uterus, body weight: oral 10 mg/kg; for growth of MT-ERα xenografts: captisol
# Experimental: Following establishment of tumors, mice (n=6/group) were randomized and treated for 5 days/week with either 10 mg/kg/oral of ERX-315 or vehicle.
# [6] = target: T1, WT ERα LBD (Homo sapiens, UniProt P03372); test: LanthaScreen TR-FRET ERα coactivator assay; format: binding
# T1 construct: in the presence of 3.5 nM ER Alpha-LBD (GST); purchased
# [7] = tested on: MCF-7 expressing mutant D538G; test: Protein synthesis by puromycin labeling, BC cells; format: cell-based; conditions: 16 h
# [8] = tested on: breast cancer cells; test: Growth inhibition of breast cancer cells; format: cell-based; conditions: read-out: IC50, activity against breast cancer cells
# Text: In addition, another tris-benzmaide compound TK208 was synthesized and tested against breast cancer and ovarian cancer cell lines (FIGS. 10-15). […] These compounds (e.g., TK41, TK208, TK308 (FIG. 21), TK309 (FIG. 22), TK314, TK315) are extremely potent compounds that inhibit tumor growth and kill breast and ovarian cancer cells and as such, they are superb therapeutic candidates for such diseases.
# [9] = tested on: WT- and MT-ERα-driven cell lines (MCF-7, ZR-75); test: Anti-proliferative activity in WT- and MT-ERα-driven cell lines; format: cell-based
# [10] = tested on: D538G MT-ERα; test: ERα ChIP, ERX-315; format: cell-based
# Text: (§1) FIGS. 66A-D: (FIG. 66A) Effect of ERX-315 on ERa DNA binding on the promoters of 5 canonical ERα-regulated genes with ERa ChIP in MCF-7 expressing D538G MT-ERα in the absence and presence of estradiol.
# (§2) Prior studies have shown that MT-ERα drives a canonical ERα transcriptional programme, both in the absence and presence of estradiol. RNA sequencing studies indicate that ERX-315 alters the transcriptional heatmap in MCF-7 and ZR-75 cells expressing D538G and Y537S MT-ERα (FIG. 66B, data shown for MCF-7 cells expressing D538G MT-ERα).
# [11] = tested on: MT-ERα; test: RNA sequencing of MT-ERα transcriptional programme; format: cell-based; conditions: MCF-7 and ZR-75 cells expressing D538G and Y537S MT-ERα
# Text: as §1, §2
# [12] = tested on: human mammary epithelial cells (HMEC); test: Activity of ERX-315 in HMEC; format: cell-based
# Text: ERX-315. The binding of ERX-315 (structure shown in FIG. 65C) to ERα has been validated for WT ERα LBD using time-resolved FRET (TR-FRET)-ERα Coactivator assay (FIG. 65D: purified MT-ERα LBD is not available). […] In contrast, ERX-314, which has a methyl group in place of the N-terminal fluoride of ERX-315, is modeled to bind less avidly to MT-ERα LBD (predicted docking energy˜[…]). […] ERX-315 had no activity against benign breast epithelial cells, shown for the human mammary epithelial cells (HMEC). In contrast, ERX-314 has dramatically lower potency (IC50˜1500-5000 nM) and serves an internal control for ERX-315. The inventors have performed most of the studies described below with three compounds-ERX-315 as the optimized lead, ERX-11 as the parental compound and ERX-314 as a negative control.
# [13] = tested on: cell lines driven by MT-ERα; test: sXBP1 and CHOP RNA expression; conditions: three cell lines driven by MT-ERα
# [14] = Pharmacokinetic studies of ERX-315; format: in vivo, mice
# Experimental: At 24 h after oral administration, ERX-315 was still detectable in the plasma at >500 ng/mL. […] Thus, the inventors' initial studies indicate that once a day oral dosing of 10 mg/kg ERX-315 in captisol is sufficient to maintain therapeutic drug levels.
# T1 sequence (P03372 311-547 limits assumed): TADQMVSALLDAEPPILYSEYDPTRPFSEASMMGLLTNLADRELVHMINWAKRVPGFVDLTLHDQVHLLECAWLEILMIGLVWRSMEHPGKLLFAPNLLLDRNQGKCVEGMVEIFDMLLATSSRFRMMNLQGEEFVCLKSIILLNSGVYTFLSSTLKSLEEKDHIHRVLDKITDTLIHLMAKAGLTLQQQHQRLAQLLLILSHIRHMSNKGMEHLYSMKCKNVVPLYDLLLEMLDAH
compound,measurement,setting,value
CC(C)COc1cc(C(=O)Nc2ccc(C(=O)N[C@H]3CC[C@H](C(=O)Nc4cnc5ccccc5c4)CC3)cc2OCC(C)C)ccc1NC(=O)c1ccc(F)c(OCCO)c1 [TK315],ERE-driven transcription,[1],attenuate transcription
same,uncompensated UPR leading to LC3B activation and cell death,[2],induced uncompensated UPR
same,protein levels of mutant ERα,[3],< 10 % basal
same,shutdown of protein synthesis in HMEC,[4],no significant shutdown of protein synthesis
same,Ki67 proliferation indices in tumors,"[5]; mouse, in vivo",dramatically decreased Ki67 proliferation indices
same,growth of MT-ERα xenografts,[5]; 10 mg/kg,potent activity; also recorded: decreased the growth and tumor weight
same,growth of MT-ERα xenografts,"[5]; listed as ERX-315, 10 mg/kg",decreased the growth; also recorded: potent activity
same,"mouse liver, uterus, body weight",[5]; 10 mg/kg,no effect on mouse liver or body weight; also recorded: No change in body weight
same,"mouse liver, uterus, body weight","[5]; listed as ERX-315, 10 mg/kg","no change in body weight; also recorded: no effect on mouse liver, uterus height or body weight"
same,immunogenicity,"[5]; syngeneic D2A1 tumors, spleen, lymph nodes, kidney, liver",not immunogenic
same,binding to WT ERα LBD,[6],validated
same,shutdown of protein synthesis in BC cells,[7],Global shutdown of protein synthesis
same,IC50,[8],10 to 50 nM
same,IC50,[9],15 to 35 nM
same,MT-ERα binding to promoters of ERα-regulated genes,[10],dramatically decreases MT-ERα binding
same,MT-ERα transcriptional programme,[11],efficiently blocks the transcriptional programme
same,activity against benign breast epithelial cells,[12],no activity
same,expression of sXBP1 and CHOP at the RNA level,[13],significantly enhance
same,oral bioavailability,[14]; captisol formulation,orally bioavailable
same,concentration at 0.5 h,"[14]; mouse, blood, 0.5 hr, single oral 10 mg/kg in captisol",3440 ± 2320 ng/mL
same,concentration at 1 h,"[14]; mouse, blood, 1 hr, single oral 10 mg/kg in captisol",2400 ± 1460 ng/mL
same,concentration at 2 h,"[14]; mouse, blood, 2 hr, single oral 10 mg/kg in captisol, read-out: Blood",1840 ± 1290 ng/mL
same,concentration at 4 h,"[14]; mouse, blood, 4 hr, single oral 10 mg/kg in captisol, read-out: Blood",16000 ± 394 ng/mL
same,concentration at 8 h,"[14]; mouse, blood, 8 hr, single oral 10 mg/kg in captisol, read-out: Blood",823 ± 123 ng/mL
same,concentration at 16 h,"[14]; mouse, blood, 16 hr, single oral 10 mg/kg in captisol, read-out: Blood",427 ± 197 ng/mL
same,concentration at 24 h,"[14]; mouse, plasma, 10 mg/kg, 24 h after oral administration, read-out: plasma level",> 500 ng/mL
same,half-life,"[14]; mouse, plasma, 10 mg/kg, oral, captisol",~4.5 h
same,concentration at 2 h,"[14]; mouse, tumor, 10 mg/kg, 2 hr after last dose, MCF7 xenograft, oral 5 days/week for 10 days, read-out: Tumor",1430 ± 631 ng/mL
same,concentration at 4 h,"[14]; mouse, tumor, 10 mg/kg, 4 hr after last dose, MCF7 xenograft, oral 5 days/week for 10 days, read-out: Tumor",1010 ± 850 ng/mL
same,concentration at 8 h,"[14]; mouse, tumor, 10 mg/kg, 8 hr after last dose, MCF7 xenograft, oral 5 days/week for 10 days, read-out: Tumor",609 ± 404 ng/mL
same,concentration at 16 h,"[14]; mouse, tumor, 10 mg/kg, 16 hr after last dose, MCF7 xenograft, oral 5 days/week for 10 days, read-out: Tumor",187 ± 238 ng/mL
same,concentration at 16 h,"[14]; mouse, tumor, oral, 10 mg/kg, 16 h after the last dose, read-out: corresponding tumor concentration",> 100 nM
same,concentration at 16 h,"[14]; mouse, tumor, MCF-7 xenograft, 2 weeks daily oral 10 mg/kg, 16 h after the last dose, read-out: tumor tissue level",> 100 ng/g
same,toxicity at 10 mg/kg,[14]; once a day oral 10 mg/kg,no significant toxicity
